From article PMC7179119, “A New Positron Emission Tomography Probe for Orexin Receptors Neuroimaging” (Molecules, 2020)
Like-named read-outs stand apart in the source and are kept apart here.

Key:
Sigma 1 = experiment: PDSP off-target radioligand binding assay; details: 10 µM
How it was run: (§1)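 Under the standard screening protocol, percent inhibition reflects one 10 µM concentration run four times against near-Kd radioligand. Total and nonspecific binding came from wells without and with 10 µM reference compound; filters were washed cold and counted.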

H2 = H2 (Homo sapiens, UniProt P25021); experiment: PDSP off-target radioligand binding assay
How it was run: as §1

M1 = biological target: T1, M1 (Homo sapiens, UniProt P11229); experiment: PDSP off-target radioligand binding assay
T1 sequence (P11229 1-460): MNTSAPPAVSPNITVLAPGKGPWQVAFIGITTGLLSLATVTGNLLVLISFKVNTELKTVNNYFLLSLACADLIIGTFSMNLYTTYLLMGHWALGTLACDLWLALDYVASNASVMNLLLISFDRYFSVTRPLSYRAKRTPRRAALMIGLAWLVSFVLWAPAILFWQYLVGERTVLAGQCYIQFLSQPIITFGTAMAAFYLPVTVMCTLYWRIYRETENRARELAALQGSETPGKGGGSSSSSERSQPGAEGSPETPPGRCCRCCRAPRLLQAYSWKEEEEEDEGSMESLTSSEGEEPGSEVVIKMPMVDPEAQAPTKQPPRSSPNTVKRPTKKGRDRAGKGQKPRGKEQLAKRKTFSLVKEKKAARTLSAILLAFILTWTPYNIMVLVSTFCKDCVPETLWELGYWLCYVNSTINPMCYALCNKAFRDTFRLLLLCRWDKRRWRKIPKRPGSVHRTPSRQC
How it was run: as §1

D5 = D5 (Homo sapiens, UniProt P21918); experiment: PDSP off-target radioligand binding assay
How it was run: as §1

5-HT7A = biological target: T2, 5-HT7A (Homo sapiens, UniProt P34969); experiment: PDSP off-target radioligand binding assay
T2 construct: NIMH PDSP
How it was run: as §1

DAT = DAT (Homo sapiens, UniProt Q01959); experiment: PDSP off-target radioligand binding assay
How it was run: as §1

Sigma 2 = experiment: PDSP off-target radioligand binding assay; details: 10 µM
How it was run: as §1

H3 = H3 (Homo sapiens, UniProt Q9Y5N1); experiment: PDSP off-target radioligand binding assay
How it was run: as §1

5-HT2B = biological target: T3, 5-HT2B (Homo sapiens, UniProt P41595); experiment: PDSP off-target radioligand binding assay
T3 construct: NIMH PDSP
How it was run: as §1

Alpha1D = biological target: T4, Alpha1D (Homo sapiens, UniProt P25100); experiment: PDSP off-target radioligand binding assay
T4 construct: NIMH PDSP
T4 sequence (P25100 1-572): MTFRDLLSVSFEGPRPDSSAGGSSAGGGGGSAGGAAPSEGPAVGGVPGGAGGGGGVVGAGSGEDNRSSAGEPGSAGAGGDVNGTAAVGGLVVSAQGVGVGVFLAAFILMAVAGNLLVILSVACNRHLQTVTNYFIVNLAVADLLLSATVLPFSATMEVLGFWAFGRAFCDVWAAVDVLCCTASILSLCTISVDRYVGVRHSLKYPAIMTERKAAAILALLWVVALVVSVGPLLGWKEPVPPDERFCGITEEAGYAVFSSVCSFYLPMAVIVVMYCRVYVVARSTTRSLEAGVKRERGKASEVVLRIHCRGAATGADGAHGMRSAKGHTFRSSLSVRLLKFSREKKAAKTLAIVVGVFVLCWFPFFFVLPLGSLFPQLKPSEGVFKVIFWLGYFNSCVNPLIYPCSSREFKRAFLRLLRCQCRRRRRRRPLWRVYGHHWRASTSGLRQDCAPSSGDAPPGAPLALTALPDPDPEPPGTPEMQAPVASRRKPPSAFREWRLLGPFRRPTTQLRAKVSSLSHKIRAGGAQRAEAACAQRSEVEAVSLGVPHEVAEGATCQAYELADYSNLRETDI
How it was run: as §1

40 other CNS targets = experiment: Off-target binding (NIMH PDSP); details: 10 µM
Protocol: Table S1. Off binding data of CW24.
The off-target binding assays were performed at PDSP with their standard protocol (https://pdspdb.unc.edu/pdspWeb/content/UNC-CH%20Protocol%20Book.pdf). In radioligand binding assays, CW24 was tested at a single concentration (10 µM) and in quadruplicate in 96-well plates. The binding assays were carried out in a final of volume of 125 µl per well in appropriate binding buffers. The hot ligand concentration is usually at a concentration close to the Kd (unless otherwise indicated). Total binding and nonspecific binding are determined in the absence and presence of 10 µM of the appropriate reference compound, respectively. In brief, plates are usually incubated at room temperature and in the dark for 90 mins. Reactions are stopped by vacuum filtration onto 0.3% polyethyleneimine (PEI) soaked 96-well filter mats using a 96-well Filtermate harvester, followed by three washes with cold wash buffers (for details, see Tables 2 to 24). Scintillation cocktail is then melted onto the microwave-dried filters on a hot plate and radioactivity is counted in a Microbeta counter.
Receptor % Inhibition 1 % Inhibition 2 % Inhibition 3 % Inhibition 4 Mean±SD %

[1] = quadruplicate, read-out: Mean±SD % inhibition
[2] = replicate 1, read-out: % Inhibition 1
[3] = replicate 2, read-out: % Inhibition 2
[4] = replicate 3, read-out: % Inhibition 3
[5] = replicate 4, read-out: % Inhibition 4

Chain of H3 (Q9Y5N1 whole entry): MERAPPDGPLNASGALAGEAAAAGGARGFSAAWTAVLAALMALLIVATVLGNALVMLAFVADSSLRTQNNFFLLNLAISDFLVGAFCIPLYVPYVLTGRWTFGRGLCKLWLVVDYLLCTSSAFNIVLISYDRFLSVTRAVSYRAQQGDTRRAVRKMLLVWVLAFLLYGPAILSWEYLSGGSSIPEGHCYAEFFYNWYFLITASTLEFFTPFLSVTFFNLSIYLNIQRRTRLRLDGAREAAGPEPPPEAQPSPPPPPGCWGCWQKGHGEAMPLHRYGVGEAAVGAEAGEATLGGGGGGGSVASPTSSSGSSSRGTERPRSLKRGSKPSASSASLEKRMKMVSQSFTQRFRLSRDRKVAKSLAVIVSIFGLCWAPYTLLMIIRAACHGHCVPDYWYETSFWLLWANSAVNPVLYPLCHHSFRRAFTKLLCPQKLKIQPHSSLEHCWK
Chain of DAT (Q01959 whole entry, species assumed): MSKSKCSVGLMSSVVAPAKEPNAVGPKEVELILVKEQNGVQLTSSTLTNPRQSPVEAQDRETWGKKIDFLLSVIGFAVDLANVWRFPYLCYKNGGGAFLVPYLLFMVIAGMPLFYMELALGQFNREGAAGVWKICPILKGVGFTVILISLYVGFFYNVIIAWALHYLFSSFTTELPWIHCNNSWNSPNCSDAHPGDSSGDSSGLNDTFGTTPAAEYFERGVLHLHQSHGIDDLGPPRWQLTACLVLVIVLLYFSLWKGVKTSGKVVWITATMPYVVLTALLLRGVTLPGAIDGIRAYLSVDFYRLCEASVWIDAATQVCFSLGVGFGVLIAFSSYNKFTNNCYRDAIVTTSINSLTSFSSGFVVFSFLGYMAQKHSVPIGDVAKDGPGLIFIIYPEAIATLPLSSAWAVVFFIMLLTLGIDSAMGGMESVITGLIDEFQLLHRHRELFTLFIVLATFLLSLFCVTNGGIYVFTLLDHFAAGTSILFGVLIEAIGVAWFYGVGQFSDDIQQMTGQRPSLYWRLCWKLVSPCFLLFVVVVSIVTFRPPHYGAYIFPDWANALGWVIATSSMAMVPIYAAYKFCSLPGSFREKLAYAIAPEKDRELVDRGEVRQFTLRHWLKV
T3 sequence (P41595 whole entry, species assumed): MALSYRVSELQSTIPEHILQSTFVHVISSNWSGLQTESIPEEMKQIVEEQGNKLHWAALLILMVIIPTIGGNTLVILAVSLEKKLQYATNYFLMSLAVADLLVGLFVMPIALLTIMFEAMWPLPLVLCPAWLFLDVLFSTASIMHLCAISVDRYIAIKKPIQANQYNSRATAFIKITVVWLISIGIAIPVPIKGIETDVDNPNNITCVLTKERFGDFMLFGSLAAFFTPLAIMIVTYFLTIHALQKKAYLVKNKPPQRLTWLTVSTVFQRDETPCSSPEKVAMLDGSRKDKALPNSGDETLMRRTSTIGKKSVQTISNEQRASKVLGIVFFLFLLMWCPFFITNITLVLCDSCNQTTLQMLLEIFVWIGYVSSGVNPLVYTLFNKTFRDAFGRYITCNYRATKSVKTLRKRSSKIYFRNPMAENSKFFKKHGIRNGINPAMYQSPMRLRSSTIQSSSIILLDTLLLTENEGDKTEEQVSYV
T2 sequence (P34969 1-445 isoform P34969-2): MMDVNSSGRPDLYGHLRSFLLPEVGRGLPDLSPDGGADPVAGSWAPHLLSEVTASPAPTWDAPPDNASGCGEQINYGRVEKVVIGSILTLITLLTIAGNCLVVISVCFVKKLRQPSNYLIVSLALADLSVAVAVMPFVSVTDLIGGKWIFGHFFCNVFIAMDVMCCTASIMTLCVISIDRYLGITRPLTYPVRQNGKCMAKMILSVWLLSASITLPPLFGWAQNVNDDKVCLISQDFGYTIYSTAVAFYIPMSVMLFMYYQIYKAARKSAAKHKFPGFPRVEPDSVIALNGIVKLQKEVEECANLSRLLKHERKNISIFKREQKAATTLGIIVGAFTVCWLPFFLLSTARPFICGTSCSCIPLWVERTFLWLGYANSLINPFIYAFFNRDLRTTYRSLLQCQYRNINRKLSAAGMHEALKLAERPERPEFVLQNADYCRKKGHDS
Chain of D5 (P21918 whole entry): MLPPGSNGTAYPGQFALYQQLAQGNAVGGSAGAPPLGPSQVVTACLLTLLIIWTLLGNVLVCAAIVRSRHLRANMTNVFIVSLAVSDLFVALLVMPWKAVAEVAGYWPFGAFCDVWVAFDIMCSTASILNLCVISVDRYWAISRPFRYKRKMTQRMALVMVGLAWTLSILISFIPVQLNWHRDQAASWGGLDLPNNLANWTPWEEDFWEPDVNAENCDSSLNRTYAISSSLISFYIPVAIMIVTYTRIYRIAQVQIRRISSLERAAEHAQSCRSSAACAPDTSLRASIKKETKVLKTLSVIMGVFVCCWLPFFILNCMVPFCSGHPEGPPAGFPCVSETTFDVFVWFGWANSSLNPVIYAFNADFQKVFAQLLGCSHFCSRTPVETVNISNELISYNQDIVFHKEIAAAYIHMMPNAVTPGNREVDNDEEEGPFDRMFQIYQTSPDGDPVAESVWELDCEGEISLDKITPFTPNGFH
Chain of H2 (P25021 whole entry): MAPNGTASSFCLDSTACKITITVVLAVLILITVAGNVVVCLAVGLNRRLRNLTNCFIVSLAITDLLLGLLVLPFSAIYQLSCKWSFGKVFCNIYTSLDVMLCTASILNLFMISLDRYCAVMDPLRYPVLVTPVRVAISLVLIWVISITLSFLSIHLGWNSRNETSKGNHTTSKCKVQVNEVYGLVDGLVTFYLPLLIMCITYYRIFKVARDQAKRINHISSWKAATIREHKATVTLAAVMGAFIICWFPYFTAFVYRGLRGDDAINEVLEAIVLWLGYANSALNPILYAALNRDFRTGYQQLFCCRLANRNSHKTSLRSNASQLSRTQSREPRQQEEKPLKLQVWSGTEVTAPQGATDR

Compound: COc1ccnc(N2CCC3(CCCN(Cc4cn(C)c5ccccc45)C3=O)CC2)n1 [CW24]
- Mean±SD % inhibition (Sigma 1; quadruplicate): 12.33 ± 12.50%
- % Inhibition 1 (Sigma 1; replicate 1): 8.39%
- % Inhibition 2 (Sigma 1; replicate 2): 1.56%
- % Inhibition 3 (Sigma 1; replicate 3): 8.99%
- % Inhibition 4 (Sigma 1; replicate 4): 30.38%
- inhibition at 10 µM (H2; [1]): 24.2 ± 1.43%
- inhibition at 10 µM (H2; [2]): 25.4%
- inhibition at 10 µM (H2; [3]): 24.4%
- inhibition at 10 µM (H2; [4]): 24.8%
- inhibition at 10 µM (H2; [5]): 22.1%
- inhibition at 10 µM (M1; [1]): 0.29 ± 11.9%
- inhibition at 10 µM (M1; [2]): 17.4%
- inhibition at 10 µM (M1; [3]): -8.79%
- inhibition at 10 µM (M1; [4]): -6.38%
- inhibition at 10 µM (M1; [5]): -1.13%
- inhibition at 10 µM (D5; [1]): 15.5 ± 27.3%
- inhibition at 10 µM (D5; [2]): 4.57%
- inhibition at 10 µM (D5; [3]): -5.32%
- inhibition at 10 µM (D5; [4]): 7.05%
- inhibition at 10 µM (D5; [5]): 55.8%
- inhibition at 10 µM (5-HT7A; [1]): -54.8 ± 29.3%
- inhibition at 10 µM (5-HT7A; [2]): -92.7%
- inhibition at 10 µM (5-HT7A; [3]): -50.8%
- inhibition at 10 µM (5-HT7A; [4]): -54.3%
- inhibition at 10 µM (5-HT7A; [5]): -21.2%
- inhibition at 10 µM (DAT; [1]): 4.6 ± 8.8%
- inhibition at 10 µM (DAT; [2]): -0.27%
- inhibition at 10 µM (DAT; [3]): -4.72%
- inhibition at 10 µM (DAT; [4]): 8.47%
- inhibition at 10 µM (DAT; [5]): 14.9%
- Mean±SD % inhibition (Sigma 2; quadruplicate): 27.22 ±10.59%
- % Inhibition 1 (Sigma 2; replicate 1): 42.39%
- % Inhibition 2 (Sigma 2; replicate 2): 19.45%
- % Inhibition 3 (Sigma 2; replicate 3): 26.56%
- % Inhibition 4 (Sigma 2; replicate 4): 20.46%
- inhibition at 10 µM (H3; [1]): -9.38 ± 11.9%
- inhibition at 10 µM (H3; [2]): -25%
- inhibition at 10 µM (H3; [3]): -12.5%
- inhibition at 10 µM (H3; [4]): 0%
- inhibition at 10 µM (H3; [5]): 0%
- inhibition at 10 µM (5-HT2B; [1]): 21.6 ± 7.7%
- inhibition at 10 µM (5-HT2B; [2]): 45.9%
- inhibition at 10 µM (5-HT2B; [3]): 11.3%
- inhibition at 10 µM (5-HT2B; [4]): 11.2%
- inhibition at 10 µM (5-HT2B; [5]): 17.8%
- inhibition at 10 µM (Alpha1D; [1]): -13.7 ± 16.7%
- inhibition at 10 µM (Alpha1D; [2]): 6.91%
- inhibition at 10 µM (Alpha1D; [3]): -32.8%
- inhibition at 10 µM (Alpha1D; [4]): -9.43%
- inhibition at 10 µM (Alpha1D; [5]): -19.4%
- selectivity for OXRs compared to 40 other CNS targets (40 other CNS targets): selective
